# Test results published in patent US20230085307A1, “PYRIDAZINONE COMPOUND AND HERBICIDE” (NISSAN CHEMICAL CORPORATION, priority 2019, published 2023).
# Experiments:
# velvetleaf [1] = experiment: Test Example 5: herbicidal effect by foliage application, plastic box (Table 20, symbol M); type: in vivo, velvetleaf (Abutilon theophrasti)
# Outline: (§1)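 Plants sown in sterilized diluvial soil and grown 14 days in a greenhouse at 25° C to 30° C, then sprayed on the foliage with the compound's emulsion diluted in water to a predetermined herbicide amount. Injury to weeds and crops scored three weeks after application on a visual rating scale.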
# blackgrass [2] = experiment: Test Example 5: herbicidal effect by foliage application, plastic box (Table 20, symbol J); type: in vivo, blackgrass (Alopecurus myosuroides)
# Outline: as §1
# blackgrass [3] = experiment: Test Example 4: herbicidal effect by soil treatment (Table 19, symbol J); type: in vivo, blackgrass (Alopecurus myosuroides)
# Outline: (§2)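 Three weeks of greenhouse growth at 25° C. to 30° C. followed a uniform surface spray of water-diluted emulsion at a predetermined herbicide amount. Seeds had been sown beforehand under about 1.5 cm of sterilized diluvial soil. Grading followed criteria set out in an earlier test.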
# wild oat [4] = experiment: Test Example 5: herbicidal effect by foliage application, plastic box (Table 20, symbol I); type: in vivo, wild oat (Avena fatua)
# Outline: as §1
# persian speedwell [5] = experiment: Test Example 5: herbicidal effect by foliage application, plastic box (Table 20, symbol R); type: in vivo, Persian speedwell (Veronica persica)
# Outline: as §1
# Italian ryegrass [6] = experiment: Test Example 5: herbicidal effect by foliage application, plastic box (Table 20, symbol K); type: in vivo, Italian ryegrass (Lolium multiflorum)
# Outline: as §1
# barnyard grass [7] = experiment: Test Example 5: herbicidal effect by foliage application, plastic box (Table 20, symbol H); type: in vivo, barnyard grass (Echinochloa crus-galli)
# Outline: as §1
# windgrass [8] = experiment: Test Example 5: herbicidal effect by foliage application, plastic box (Table 20, symbol L); type: in vivo, windgrass (Apera spica-venti)
# Outline: as §1
# barnyard grass [9] = experiment: Test Example 4: herbicidal effect by soil treatment (Table 19, symbol H); type: in vivo, barnyard grass (Echinochloa crus-galli)
# Outline: as §2
# rice flat sedge = experiment: Test Example 3: herbicidal effect by foliage application, Wagner pot (Table 18, symbol E); type: in vivo, rice flat sedge (Cyperus iria); details: 320 g/ha
# Outline: (§3)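 Plants were sown in alluvial soil held under 0.1–0.5 cm standing water and grown 14 days in a greenhouse at 25–30 °C. An emulsifiable formulation, water-diluted to the set dose, was then sprayed onto the foliage, and effects were scored three weeks later using previously defined criteria.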
# persian speedwell [10] = experiment: Test Example 4: herbicidal effect by soil treatment (Table 19, symbol R); type: in vivo, Persian speedwell (Veronica persica); details: AAH 320 g/ha
# Outline: as §2
# chickweed [11] = experiment: Test Example 5: herbicidal effect by foliage application, plastic box (Table 20, symbol P); type: in vivo, common chickweed (Stellaria media)
# Outline: as §1
# Chinese sprangletop = experiment: Test Example 3: herbicidal effect by foliage application, Wagner pot (Table 18, symbol D); type: in vivo, chinese sprangletop (Leptochloa chinensis); details: 320 g/ha
# Outline: as §3
# redroot pigweed [12] = experiment: Test Example 4: herbicidal effect by soil treatment (Table 19, symbol N); type: in vivo, redroot pigweed (Amaranthus retroflexus)
# Outline: as §2
# green foxtail [13] = experiment: Test Example 4: herbicidal effect by soil treatment (Table 19, symbol G); type: in vivo, green foxtail (Setaria viridis)
# Outline: as §2
# lambsquarters [14] = experiment: Test Example 5: herbicidal effect by foliage application, plastic box (Table 20, symbol O); type: in vivo, lambsquarters (Chenopodium album)
# Outline: as §1
# green foxtail [15] = experiment: Test Example 5: herbicidal effect by foliage application, plastic box (Table 20, symbol G); type: in vivo, green foxtail (Setaria viridis)
# Outline: as §1
# barnyard grass [16] = experiment: Test Example 3: herbicidal effect by foliage application, Wagner pot (Table 18, symbol H); type: in vivo, barnyard grass (Echinochloa crus-galli); details: 320 g/ha
# Outline: as §3
# southern crabgrass [17] = experiment: Test Example 5: herbicidal effect by foliage application, plastic box (Table 20, symbol F); type: in vivo, southern crabgrass (Digitaria ciliaris)
# Outline: as §1
# redroot pigweed [18] = experiment: Test Example 5: herbicidal effect by foliage application, plastic box (Table 20, symbol N); type: in vivo, redroot pigweed (Amaranthus retroflexus)
# Outline: as §1
# chickweed [19] = experiment: Test Example 4: herbicidal effect by soil treatment (Table 19, symbol P); type: in vivo, common chickweed (Stellaria media); details: AAH 320 g/ha
# Outline: as §2
# velvetleaf [20] = experiment: Test Example 4: herbicidal effect by soil treatment (Table 19, symbol M); type: in vivo, velvetleaf (Abutilon theophrasti)
# Outline: as §2
# false cleavers = experiment: Test Example 4: herbicidal effect by soil treatment (Table 19, symbol Q); type: in vivo, false cleavers (Galium spurium)
# Outline: as §2
# southern crabgrass [21] = experiment: Test Example 4: herbicidal effect by soil treatment (Table 19, symbol F); type: in vivo, southern crabgrass (Digitaria ciliaris)
# Outline: as §2
# wild oat [22] = experiment: Test Example 4: herbicidal effect by soil treatment (Table 19, symbol I); type: in vivo, wild oat (Avena fatua)
# Outline: as §2
# lambsquarters [23] = experiment: Test Example 4: herbicidal effect by soil treatment (Table 19, symbol O); type: in vivo, lambsquarters (Chenopodium album)
# Outline: as §2
# Italian ryegrass [24] = experiment: Test Example 4: herbicidal effect by soil treatment (Table 19, symbol K); type: in vivo, Italian ryegrass (Lolium multiflorum)
# Outline: as §2
# windgrass [25] = experiment: Test Example 4: herbicidal effect by soil treatment (Table 19, symbol L); type: in vivo, windgrass (Apera spica-venti); details: amount of applied herbicide 320 g/ha
# Outline: as §2
# [26] = foliage application, AAH 320 g/ha, three weeks after application
# [27] = 320 g/ha, foliage application after 14-day growth, evaluated three weeks after application
# [28] = amount of applied herbicide 320 g/ha
compound,measurement,setting,value
COc1nn(C)c(=O)c(-c2c(-c3ccc(F)c(C)c3)sc3ccccc23)c1O [1-174],"M: velvetleaf, herbicidal effect",velvetleaf [1]; [26],4 (Herbicidal rate of 70% or more and less than 90%)
same,"J: blackgrass, herbicidal effect",blackgrass [2]; [26],0 (Herbicidal rate of 5% or less (almost no effect))
same,"J: blackgrass, herbicidal effect rating",blackgrass [3]; AAH 320 g/ha,0 (Herbicidal rate of 5% or less (almost no effect))
same,"I: wild oat, herbicidal effect",wild oat [4]; [26],0 (Herbicidal rate of 5% or less (almost no effect))
same,"R: persian speedwell, herbicidal effect",persian speedwell [5]; [26],4 (Herbicidal rate of 70% or more and less than 90%)
same,"K: Italian ryegrass, herbicidal effect",Italian ryegrass [6]; [26],1 (Herbicidal rate of 5% or more and less than 20%)
same,"H: barnyard grass, herbicidal effect",barnyard grass [7]; [26],0 (Herbicidal rate of 5% or less (almost no effect))
same,"L: windgrass, herbicidal effect",windgrass [8]; [26],0 (Herbicidal rate of 5% or less (almost no effect))
same,"H: barnyard grass, herbicidal effect rating",barnyard grass [9]; AAH 320 g/ha,0 (Herbicidal rate of 5% or less (almost no effect))
same,"herbicidal effect on E (rice flat sedge), rating 0-5",rice flat sedge,3 (Herbicidal rate of 40% or more and less than 70%)
same,"R: persian speedwell, herbicidal effect rating",persian speedwell [10],4 (Herbicidal rate of 70% or more and less than 90%)
same,"P: chickweed, herbicidal effect",chickweed [11]; [26],5 (Herbicidal rate of 90% or more (almost completely withered))
same,"herbicidal effect on D (Chinese sprangletop), rating 0-5",Chinese sprangletop,0 (Herbicidal rate of 5% or less (almost no effect))
same,"N: redroot pigweed, herbicidal effect rating",redroot pigweed [12]; AAH 320 g/ha,0 (Herbicidal rate of 5% or less (almost no effect))
same,"G: green foxtail, herbicidal effect rating",green foxtail [13]; AAH 320 g/ha,0 (Herbicidal rate of 5% or less (almost no effect))
same,"O: lambsquarters, herbicidal effect",lambsquarters [14]; [26],2 (Herbicidal rate of 20% or more and less than 40%)
same,"G: green foxtail, herbicidal effect",green foxtail [15]; [26],2 (Herbicidal rate of 20% or more and less than 40%)
same,"herbicidal effect on H (barnyard grass), rating 0-5",barnyard grass [16],1 (Herbicidal rate of 5% or more and less than 20%)
same,"F: southern crabgrass, herbicidal effect",southern crabgrass [17]; [26],0 (Herbicidal rate of 5% or less (almost no effect))
same,"N: redroot pigweed, herbicidal effect",redroot pigweed [18]; [26],0 (Herbicidal rate of 5% or less (almost no effect))
same,"P: chickweed, herbicidal effect rating",chickweed [19],5 (Herbicidal rate of 90% or more (almost completely withered))
same,"M: velvetleaf, herbicidal effect rating",velvetleaf [20]; AAH 320 g/ha,0 (Herbicidal rate of 5% or less (almost no effect))
same,"Q: false cleavers, herbicidal effect rating",false cleavers; AAH 320 g/ha,0 (Herbicidal rate of 5% or less (almost no effect))
same,"F: southern crabgrass, herbicidal effect rating",southern crabgrass [21]; AAH 320 g/ha,0 (Herbicidal rate of 5% or less (almost no effect))
same,"I: wild oat, herbicidal effect rating",wild oat [22]; AAH 320 g/ha,0 (Herbicidal rate of 5% or less (almost no effect))
same,"O: lambsquarters, herbicidal effect rating",lambsquarters [23]; AAH 320 g/ha,0 (Herbicidal rate of 5% or less (almost no effect))
same,"K: Italian ryegrass, herbicidal effect rating",Italian ryegrass [24]; AAH 320 g/ha,0 (Herbicidal rate of 5% or less (almost no effect))
Cc1nn(C)c(=O)c(-c2c(-c3ccc(Cl)cc3)sc3c(Cl)cccc23)c1O [4-017],herbicidal effect on M: velvetleaf (evaluation grade 0-5),velvetleaf [1]; [27],4 (Herbicidal rate of 70% or more and less than 90%)
same,herbicidal effect on J: blackgrass (evaluation grade 0-5),blackgrass [2]; [27],3 (Herbicidal rate of 40% or more and less than 70%)
same,"Herbicidal effect by soil treatment, J: blackgrass",blackgrass [3]; [28],0 (Herbicidal rate of 5% or less (almost no effect))
same,herbicidal effect on I: wild oat (evaluation grade 0-5),wild oat [4]; [27],3 (Herbicidal rate of 40% or more and less than 70%)
same,herbicidal effect on R: persian speedwell (evaluation grade 0-5),persian speedwell [5]; [27],4 (Herbicidal rate of 70% or more and less than 90%)
same,herbicidal effect on K: Italian ryegrass (evaluation grade 0-5),Italian ryegrass [6]; [27],1 (Herbicidal rate of 5% or more and less than 20%)
same,herbicidal effect on H: barnyard grass (evaluation grade 0-5),barnyard grass [7]; [27],0 (Herbicidal rate of 5% or less (almost no effect))
same,herbicidal effect on L: windgrass (evaluation grade 0-5),windgrass [8]; [27],4 (Herbicidal rate of 70% or more and less than 90%)
same,"Herbicidal effect by soil treatment, H: barnyard grass",barnyard grass [9]; [28],0 (Herbicidal rate of 5% or less (almost no effect))
same,herbicidal effect on rice flat sedge (E),rice flat sedge,3 (Herbicidal rate of 40% or more and less than 70%)
same,herbicidal effect on P: chickweed (evaluation grade 0-5),chickweed [11]; [27],5 (Herbicidal rate of 90% or more (almost completely withered))
same,herbicidal effect on Chinese sprangletop (D),Chinese sprangletop,0 (Herbicidal rate of 5% or less (almost no effect))
same,"Herbicidal effect by soil treatment, N: redroot pigweed",redroot pigweed [12]; [28],0 (Herbicidal rate of 5% or less (almost no effect))
same,"Herbicidal effect by soil treatment, G: green foxtail",green foxtail [13]; [28],0 (Herbicidal rate of 5% or less (almost no effect))
same,herbicidal effect on O: lambsquarters (evaluation grade 0-5),lambsquarters [14]; [27],2 (Herbicidal rate of 20% or more and less than 40%)
same,"Herbicidal effect by soil treatment, L: windgrass",windgrass [25],2 (Herbicidal rate of 20% or more and less than 40%)
same,herbicidal effect on G: green foxtail (evaluation grade 0-5),green foxtail [15]; [27],0 (Herbicidal rate of 5% or less (almost no effect))
same,herbicidal effect on barnyard grass (H),barnyard grass [16],4 (Herbicidal rate of 70% or more and less than 90%)
same,herbicidal effect on F: southern crabgrass (evaluation grade 0-5),southern crabgrass [17]; [27],0 (Herbicidal rate of 5% or less (almost no effect))
same,herbicidal effect on N: redroot pigweed (evaluation grade 0-5),redroot pigweed [18]; [27],5 (Herbicidal rate of 90% or more (almost completely withered))
same,"Herbicidal effect by soil treatment, M: velvetleaf",velvetleaf [20]; [28],0 (Herbicidal rate of 5% or less (almost no effect))
same,"Herbicidal effect by soil treatment, Q: false cleavers",false cleavers; [28],0 (Herbicidal rate of 5% or less (almost no effect))
same,"Herbicidal effect by soil treatment, F: southern crabgrass",southern crabgrass [21]; [28],0 (Herbicidal rate of 5% or less (almost no effect))
same,"Herbicidal effect by soil treatment, I: wild oat",wild oat [22]; [28],0 (Herbicidal rate of 5% or less (almost no effect))
same,"Herbicidal effect by soil treatment, O: lambsquarters",lambsquarters [23]; [28],0 (Herbicidal rate of 5% or less (almost no effect))
same,"Herbicidal effect by soil treatment, K: Italian ryegrass",Italian ryegrass [24]; [28],0 (Herbicidal rate of 5% or less (almost no effect))
